Reference: patent US20160122387A1, “Angiotensin Peptide and Pharmaceutical Compositions for Disease Treatment” (UNIVERSIDADE FEDERAL DE MINAS GERAIS - UFMG, priority 2012, published 2016)

Test system: conscious SHR
Test: Acute IV bolus administration, MAP and HR in conscious SHR
Assay type: in vivo, rat
Experimental: Wistar and SHR rats were anesthetized with 2.5% tribromoethanol, intraperitoneally (1 mL/100 g). For femoral artery cannulation, cannulas made by connecting 15 cm polyethylene PESO to 4 cm of PE10 polyethylene were used, filled with saline solution (NaCl 0.9%) and heparin (100 IU/0.1 mL). After the animal was placed supine on the operating table, a trichotomy of the right inguinal region of the animal was performed. A small skin incision was made; the femoral neurovascular bundle was located and the femoral artery isolated. The cannula was introduced into the abdominal aorta through the femoral artery and was used for obtaining the cardiovascular parameters. A second cannula made by connecting 15 cm polyethylene PESO to 2 cm of PE10 polyethylene, filled with saline (0.9% NaCl), was inserted into the femoral vein for administration of peptides. After cannulation, the catheters were secured and exteriorized subcutaneously into the back of the animal, in the cervical region. The incisions were sutured and the animals placed in individual cages, with free access to water and feed. The values of mean arterial pressure (MAP) and heart rate (HR) were calculated from PA pulses and recorded by the data acquisition system (BIOPAC System, Model MP150). The pulsatile arterial pressure (PAP) was recorded by a signal sent to a transducer connected to the cannula inserted into the abdominal aorta via the femoral artery. The pressure oscillations were captured, amplified and converted by an analog/digital conversion board feeding signals to the data acquisition board. Through the card reader software, AcqKnowledge v.3.5.7 (Biopac System), PAP was continuously recorded with a sampling frequency of 2000-4000 Hz. Twenty-four hours after implantation of the cannulas was conducted, the first protocol, which consisted of acute intravenous administration of peptides was performed. For this, during the experiment, the arterial catheter was connected to the pressure transducer for the beginning of the record. After 90 minutes of cardiovascular parameters stabilization (baseline), the administration of the peptides […]-Ang-(1-7), Ang (1-7) or saline in a final volume of 300 uL was given in bolus. […] The Ang-(1-7) also was used to compare the effect induced by each peptide. Doses of 0.1 nmol/kg; 0.5 nmol/kg; 2.5 nmol/kg and 12.5 nmol/kg were administered to SHR (n=5-7 for each dose) while awake. […] After injection of the peptide or saline, cardiovascular parameters were continuously monitored for a period of 5 hours. The values of the MAP and HR were obtained every 10 minutes throughout the experimental period. Results are presented as mean±standard error of the mean. Two-way analysis of variance (ANOVA) with Bonferroni's multiple comparison post-test were used to compare the time-response curve obtained during the bolus administration in […]-Ang-(1-7) and Ang-(1-7). All statistical analyses were considered significant when p<0.05.

Asp-Arg-Val-Tyr-Ile-His-Pro [Ang-(1-7)]
effect on MAP (PAM) (SHR, IV bolus 0.1 nmol/kg): did not significantly alter PAM | effect on MAP (SHR, IV bolus 0.5 nmol/kg, vs saline group): no significant difference | change in heart rate (FC) (SHR, IV bolus 12.5 nmol/kg, last 30 minutes of the experiment): significantly reduced the FC | time after administration at which anti-hypertensive effect was observed (SHR, IV bolus 2.5 and 12.5 nmol/kg): 110 min | effect on MAP (SHR, IV bolus 2.5 and 12.5 nmol/kg, vs saline group): significant anti-hypertensive effect | dose comparison of anti-hypertensive effect (SHR, IV bolus 2.5 vs 12.5 nmol/kg): more potent at the dose of 2.5 nmol/kg | change in heart rate (CF) (SHR, IV bolus, all doses except 12.5 nmol/kg Ang-(1-7)): no change was observed | change in MAP, time- and dose-dependent (awake SHR, acute intravenous, different doses, vs saline group): significant reduction in MAP
